67 compounds from patent publication US8575197B2, “Pyrolinone derivative and pharmaceutical composition comprising the same” (Shionogi & Co., Ltd., priority 2008, dated 2013) can be followed below.

pIC50: −log10 of the molar value.

The target of the test is human P2X3 receptor (Homo sapiens (Human), UniProt P56373). Briefly: P2X3 receptor inhibition, ATP-evoked Fluo-3 calcium fluorescence (FDSS 3000). The format is cell-based. Conditions: C6BU-1 cell transfected with human P2X3 receptor gene; ATP-evoked Fluo-3 fluorescence. The procedure, abridged: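 C6BU-1 cells stably transfected with human P2X3, loaded with 4 μM Fluo-3-AM for 1 h at 37 °C in HEPES buffer pH 7.5 with probenecid. Compound added 5 min before 40 nM ATP solution; fluorescence followed 3 min. IC50 from ratio of peak post-ATP to baseline fluorescence.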
Sequence of human P2X3 receptor (P56373 whole entry): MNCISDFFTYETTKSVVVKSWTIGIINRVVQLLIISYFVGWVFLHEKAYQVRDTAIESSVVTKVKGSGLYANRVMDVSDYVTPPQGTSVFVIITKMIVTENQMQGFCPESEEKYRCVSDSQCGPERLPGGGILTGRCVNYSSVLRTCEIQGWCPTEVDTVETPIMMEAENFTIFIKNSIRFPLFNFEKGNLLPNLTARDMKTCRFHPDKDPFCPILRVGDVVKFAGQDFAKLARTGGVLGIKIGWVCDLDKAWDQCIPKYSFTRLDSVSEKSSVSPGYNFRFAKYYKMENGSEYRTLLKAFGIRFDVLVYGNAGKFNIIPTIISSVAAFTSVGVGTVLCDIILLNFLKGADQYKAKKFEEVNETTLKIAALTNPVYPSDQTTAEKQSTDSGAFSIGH

As for `Cc1nc(-c2ccc(N3C(=O)C(O)=C(C(=O)C4CCCC4)C3c3ccccc3OC(C)C)cc2)no1` (stereo not shown) [Compound I-518], the pIC50 is 7.06.

As to `COc1ccccc1C1c2c(C(C)(C)C)n[nH]c2C(=O)N1c1ccc(OC(F)(F)F)cc1` (stereo not shown) [II-097], the pIC50 was 6.45.

Turning to `Cc1cc(-c2ccc(N3C(=O)C(O)=C(C(=O)C(C)C)C3c3ccccc3OCCO)cc2)cs1` (stereo not shown) [Compound I-256], the negative-log IC50 (pIC50) is 7.64.

As to `COCc1ccccc1C1C(C(=O)CC(C)C)=C(O)C(=O)N1c1ccc(-c2ccc(C)s2)cc1` (stereo not shown) [Compound I-303], the pIC50 is 7.51.

For the compound `CC(C)(C)C(=O)C1=C(O)C(=O)N(c2ccc(-c3ccon3)cc2)C1c1cccc[n+]1[O-]` (stereo not shown) [Compound I-005], the pIC50 was 6.61.

`Cc1ccc(-c2ccc(N3C(=O)C(O)=C(C(=O)CC(C)C)C3c3cccnc3C(=O)N3CCCC3)cc2)s1` (stereo not shown) [Compound I-579]: the pIC50 was 6.37.

Take `Cc1ccc(-c2ccc(N3C(=O)C(O)=C(C(=O)CC(C)C)C3c3ccccc3OC(F)F)cc2)s1` (stereo not shown) [Compound I-337]: the pIC50 was 6.99.

With `COCc1ccccc1C1C(C(=O)C(C)C)=C(O)C(=O)N1c1ccc(-c2ccccc2)s1` (stereo not shown) [Compound I-283], the pIC50 was 6.84.

For `CC(C)C(=O)C1=C(O)C(=O)N(c2ccc(-c3ccsc3)cc2)C1c1ccccc1OCCN(C)C` (stereo not shown) [Compound I-158], the pIC50 is 7.64.

With `COCCOc1ncccc1C1C(C(=O)C(C)(C)C)=C(O)C(=O)N1c1ccc(-c2ccoc2)cc1` (stereo not shown) [Compound I-164], the pIC50 was 7.13.

`COc1ccccc1C1c2c(C(C)(C)C)n[nH]c2C(=O)N1c1ccc(-c2ccco2)cn1` (stereo not shown) [II-257]: the pIC50 was 7.48.

Take `CC(C)c1n[nH]c2c1C(c1ccccc1C(N)=O)N(c1ccc(-c3ccsc3)cc1)C2=O` (stereo not shown) [II-090]: the negative logarithm of the IC50 (pIC50) was 8.70.

With `COCc1ccccc1C1C(C(=O)C(C)C)=C(O)C(=O)N1c1ccc(I)cc1` (stereo not shown) [Compound I-281], the pIC50 was 6.20.

`Cc1nc(-c2ccc(N3C(=O)C(O)=C(C(=O)C(C)C)C3c3ccccc3CCC(N)=O)cc2)no1` (stereo not shown) [Compound I-592]: the pIC50 is 6.08.

For `CSc1ccc(N2C(=O)C(O)=C(C(=O)C(C)(C)C)C2c2ccccc2OCCO)cc1` (stereo not shown) [Compound I-081], the pIC50 is 6.82.

For `COc1ncccc1C1c2c(C(C)(C)C)n[nH]c2C(=O)N1c1ccc(SC)cc1` (stereo not shown) [II-007], the pIC50 is 7.21.

`COCCCOc1ccccc1C1C(C(=O)C(C)C)=C(O)C(=O)N1c1ccc(-c2ccsc2)cc1` (stereo not shown) [Compound I-489]: the pIC50 was 8.22.

Turning to `COc1ccccc1C1C(C(=O)C(C)C)=C(O)C(=O)N1c1ccc(-c2ccc(C)s2)cc1` (stereo not shown) [Compound I-259], the pIC50 was 7.52.

Regarding `COc1ccccc1C1c2c(C3CC3)n[nH]c2C(=O)N1c1ccc(-c2ccsc2)cc1` (stereo not shown) [II-083], the pIC50 is 7.62.

Regarding `COc1ccccc1C1c2c(C(C)(C)C(=O)O)n[nH]c2C(=O)N1c1ccc(-c2cccs2)cc1` (stereo not shown) [II-163], the pIC50 was 7.47.

Take `Cc1cc(-c2ccc(N3C(=O)C(O)=C(C(=O)C(C)C)C3c3ccccc3OC(C)C)cc2)cs1` (stereo not shown) [Compound I-419]: the pIC50 was 7.49.

Turning to `COC(=O)COc1ccccc1C1c2c(C(C)(C)C)n[nH]c2C(=O)N1c1ccc(-c2cccs2)cc1` (stereo not shown) [II-021], the pIC50 was 8.05.

In the case of `COc1ccccc1[C@H]1C(C(=O)CC(C)C)=C(O)C(=O)N1c1ccc(-c2ccsc2)cc1` [Compound I-280], the pIC50 was 6.32.

Take `COc1ccccc1C1c2c(C(C)(C)CO)n[nH]c2C(=O)N1c1ccc(-c2ccco2)cn1` (stereo not shown) [II-265]: the pIC50 was 7.51.

Turning to `CC(C)c1n[nH]c2c1C(c1cccnc1OCCO)N(c1ccc(-c3ccon3)cc1)C2=O` (stereo not shown) [II-044], the pIC50 is 6.24.

Regarding `COCOc1ccccc1C1C(C(=O)C(C)C)=C(O)C(=O)N1c1ccc(-c2noc(C)n2)cc1` (stereo not shown) [Compound I-311], the pIC50 is 6.92.

Take `COCCOc1ccccc1[C@H]1C(C(=O)C(C)C)=C(O)C(=O)N1c1ccc(-c2ccoc2)cc1` [Compound I-209]: the pIC50 is 6.63.

Take `COCc1ccccc1C1C(C(=O)CC(C)C)=C(O)C(=O)N1c1ccc(-c2cscn2)cc1` (stereo not shown) [Compound I-422]: the pIC50 was 6.44.

Consider `COc1cc(N2C(=O)c3[nH]nc(C(C)C)c3C2c2ccccc2OC)ccc1-c1ccsc1` (stereo not shown) [II-235], for which the negative-log IC50 (pIC50) is 7.77.

For the compound `CCOc1ncccc1C1C(C(=O)CC(C)C)=C(O)C(=O)N1c1ccc(-c2ccsc2)cc1` (stereo not shown) [Compound I-440], the pIC50 was 7.46.

Consider `COc1ccccc1C1c2c(C(C)(C)C)n[nH]c2C(=O)N1c1ccc(-c2ncco2)cc1` (stereo not shown) [II-209], for which the pIC50 is 7.06.

As for `CNC(=O)c1ccccc1C1c2c(C(C)C)n[nH]c2C(=O)N1c1ccc(-c2ccsc2)cc1` (stereo not shown) [II-092], the pIC50 is 8.70.

`COCc1ccccc1C1c2c(C(C)(C)C)n[nH]c2C(=O)N1c1ccc(-c2noc(C)n2)cc1` (stereo not shown) [II-069]: the pIC50 was 6.38.

For `Cc1cc(-c2ccc(N3C(=O)C(O)=C(C(=O)C(C)C)C3c3ccccc3CC(=O)N3CCCC3)cc2)cs1` (stereo not shown) [Compound I-526], the pIC50 was 6.66.

Turning to `CC(C)(C)C(=O)C1=C(O)C(=O)N(c2ccc(-c3cccs3)cc2)C1c1cccnc1OCCO` (stereo not shown) [Compound I-172], the pIC50 is 7.62.

`Cc1cc(-c2ccc(N3C(=O)C(O)=C(C(=O)CC(C)C)C3c3ccccc3OC(F)(F)F)cc2)cs1` (stereo not shown) [Compound I-378]: the pIC50 is 6.72.

On to `COCCOc1ccccc1C1C(C(=O)C(C)C)=C(O)C(=O)N1c1ccc(-c2csnn2)cc1` (stereo not shown) [Compound I-532], for which the pIC50 is 6.69.

As for `COCCCOc1ncccc1C1C(C(=O)C(C)C)=C(O)C(=O)N1c1ccc(-c2ccsc2)cc1` (stereo not shown) [Compound I-565], the pIC50 is 7.89.

Turning to `CCOCOc1ccccc1C1C(C(=O)C(C)C)=C(O)C(=O)N1c1ccc(-c2noc(C)n2)cc1` (stereo not shown) [Compound I-542], the pIC50 was 7.24.

Turning to `Cc1cc(-c2ccc(N3C(=O)C(O)=C(C(=O)CC(C)C)C3c3ccccc3OCCO)cc2)on1` (stereo not shown) [Compound I-345], the pIC50 was 6.00.

Consider `COc1ccccc1C1C(C(=O)C(C)C)=C(O)C(=O)N1c1ccc(-c2ccsc2)c(N(C)C)c1` (stereo not shown) [Compound I-242], for which the pIC50 was 6.45.

In the case of `COCCOc1ccccc1C1C(C(=O)CC(C)C)=C(O)C(=O)N1c1ccc(-c2ccon2)cc1` (stereo not shown) [Compound I-309], the pIC50 was 6.74.

Turning to `CSc1ccc(N2C(=O)c3[nH]nc(C(C)(C)C)c3C2c2cccnc2OCCO)cc1` (stereo not shown) [II-040], the pIC50 was 7.15.

As for `COc1ccccc1C1c2c(C(C)C)n[nH]c2C(=O)N1c1ccc(-c2ccsc2)c(N(C)C)c1` (stereo not shown) [II-244], the pIC50 is 6.84.

Turning to `Cc1nc(-c2ccc(N3C(=O)C(O)=C(C(=O)C(C)C)C3c3ccccc3OC3CCCC3)cc2)no1` (stereo not shown) [Compound I-503], the pIC50 was 7.77.

Regarding `CC(C)C(=O)C1=C(O)C(=O)N(c2ccc(-c3ccoc3)cc2)C1c1cccnc1OCCCO` (stereo not shown) [Compound I-566], the pIC50 is 7.21.

Regarding `COc1ncccc1C1C(C(=O)C(C)C)=C(O)C(=O)N1c1ccc(-c2csc(C)c2)cc1` (stereo not shown) [Compound I-320], the pIC50 was 6.56.

Take `CC(C)C(=O)C1=C(O)C(=O)N(c2ccc(-c3ccsc3)cc2)C1c1ccccc1OCC(N)=O` (stereo not shown) [Compound I-189]: the pIC50 was 7.85.

For the compound `CC(C)(C)c1n[nH]c2c1C(c1cccc[n+]1[O-])N(c1ccc(-c3ccon3)cc1)C2=O` (stereo not shown) [II-058], the pIC50 is 6.31.

Consider `CC(C)(C)C(=O)C1=C(O)C(=O)N(c2ccc(-c3ccoc3)cc2)C1c1cccnc1OCCO` (stereo not shown) [Compound I-165], for which the pIC50 was 7.02.

On to `CN(C)CCOc1ccccc1C1C(C(=O)C(C)(C)C)=C(O)C(=O)N1c1ccc(-c2ccon2)cc1` (stereo not shown) [Compound I-137], for which the pIC50 is 6.21.

For the compound `COc1ccccc1C1c2c(C(C)(C)CO)n[nH]c2C(=O)N1c1ccc(-c2ccsc2)cn1` (stereo not shown) [II-251], the pIC50 was 8.10.

As to `COc1ccccc1C1c2c(C(C)C)n[nH]c2C(=O)N1c1ccc(-c2ccsc2)c(C)c1` (stereo not shown) [II-239], the pIC50 was 6.69.

With `Cc1cc(-c2ccc(N3C(=O)C(O)=C(C(=O)C(C)C)C3c3ccccc3C(=O)N(C)CCO)cc2)cs1` (stereo not shown) [Compound I-584], the pIC50 is 6.78.

For the compound `COCc1ccccc1C1C(C(=O)C(C)C)=C(O)C(=O)N1c1ccc(-c2csc(C)c2)cc1` (stereo not shown) [Compound I-265], the pIC50 is 7.55.

With `COc1ccccc1C1c2c(C(C)(C)CO)n[nH]c2C(=O)N1c1ccc(-c2cccs2)cc1` (stereo not shown) [II-218], the pIC50 is 8.30.

Turning to `CC(C)Oc1ccccc1C1C(C(=O)C(C)C)=C(O)C(=O)N1c1ccc(-c2csnn2)cc1` (stereo not shown) [Compound I-533], the pIC50 was 7.48.

For the compound `COCc1ccccc1C1C(C(=O)CC(C)C)=C(O)C(=O)N1c1ccc(SC)cc1` (stereo not shown) [Compound I-437], the pIC50 is 6.95.

Take `COc1ccccc1C1C(C(=O)CC(C)C)=C(O)C(=O)N1c1ccc(C2=NCCS2)cc1` (stereo not shown) [Compound I-412]: the pIC50 is 6.51.

Turning to `COc1ccccc1C1c2c(C(C)=O)n[nH]c2C(=O)N1c1ccc(-c2ccsc2)cc1` (stereo not shown) [II-188], the pIC50 was 6.81.

With `CC(C)CC(=O)C1=C(O)C(=O)N(c2ccc(-c3ccsc3)cc2)C1c1ccccc1N1CCOCC1` (stereo not shown) [Compound I-442], the pIC50 is 8.30.

As to `CC(C)CC(=O)C1=C(O)C(=O)N(c2ccc(-c3ccsc3)cc2)C1c1ccccc1OC(F)(F)F` (stereo not shown) [Compound I-330], the pIC50 was 7.15.

For `Cc1nc(-c2ccc(N3C(=O)C(O)=C(C(=O)C(C)C)C3c3ccccc3OC(C)C)cc2)no1` (stereo not shown) [Compound I-312], the pIC50 was 7.27.

For `COc1ccc(C(=O)C2=C(O)C(=O)N(c3ccc(-c4nc(C)no4)cc3)C2C2CCCCC2)cc1` (stereo not shown) [Compound I-020], the pIC50 is 7.68.

Consider `COc1ncccc1C1c2c(C(C)(C)C)n[nH]c2C(=O)N1c1ccc(-c2cccs2)nc1` (stereo not shown) [II-270], for which the pIC50 was 7.60.

As to `COCCCOc1ccccc1C1C(C(=O)C(C)C)=C(O)C(=O)N1c1ccc(SC)cc1` (stereo not shown) [Compound I-484], the pIC50 is 7.04.

Consider `CC(C)(C)C(=O)C1=C(O)C(=O)N(c2ccc(-c3ccsc3)cc2)C1c1ccccc1OCC#N` (stereo not shown) [Compound I-180], for which the pIC50 is 8.30.

Usually pIC50 stands for the negative decadic logarithm of the IC50, by convention in mol/L.
